The record followed here is PubChem BioAssay AID248 (DTP/NCI, 2004).

This assay has as its system L1210 leukemia ip in BDF1 mice, survival T/C. The experiment in a line: NCI In Vivo Anticancer Drug Screen. Data for tumor model L1210 Leukemia (intraperitoneal) in B6D2F1 (BDF1) mice. The conditions noted are these: endpoint: mean survival time, higher = longer survival. The procedure, abridged: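 Read-out is survival time, reported as the treated-group measurement over the vehicle-control measurement.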

Where [1] appears, read: dose: 100.0 mg/kg/injection, schedule: Q01DX009 (ip), vehicle: saline with Tween-80.
[2] abbreviates: dose: 200.0 mg/kg/injection, schedule: Q01DX009 (ip), vehicle: saline with Tween-80.
Where [3] appears, read: dose: 50.0 mg/kg/injection, schedule: Q01DX009 (ip), vehicle: water.
[4] abbreviates: dose: 100.0 mg/kg/injection, schedule: Q04DX003 (ip), vehicle: water.
Setting [5] is: dose: 200.0 mg/kg/injection, schedule: Q04DX003 (ip), vehicle: water.
The mark [6] stands for this setting: dose: 100.0 mg/kg/injection, schedule: Q01DX009 (ip), vehicle: saline.
The mark [7] stands for this setting: dose: 100.0 mg/kg/injection, schedule: Q01DX009 (ip), vehicle: Klucel (hydroxypropylcellulose) (HPC).
[8] abbreviates: dose: 200.0 mg/kg/injection, schedule: Q01DX009 (ip), vehicle: Klucel (hydroxypropylcellulose) (HPC).
The mark [9] stands for this setting: dose: 400.0 mg/kg/injection, schedule: Q01DX009 (ip), vehicle: Klucel (hydroxypropylcellulose) (HPC).
The mark [10] stands for this setting: dose: 100.0 mg/kg/injection, schedule: Q01DX001 (ip), vehicle: saline.
Where [11] appears, read: dose: 100.0 mg/kg/injection, schedule: Q04DX003 (ip), vehicle: saline with Tween-80.
Where [12] appears, read: dose: 200.0 mg/kg/injection, schedule: Q04DX003 (ip), vehicle: saline with Tween-80.
[13] abbreviates: dose: 25.0 mg/kg/injection, schedule: Q04DX003 (ip), vehicle: saline.
The mark [14] stands for this setting: dose: 50.0 mg/kg/injection, schedule: Q04DX003 (ip), vehicle: saline.
Where [15] appears, read: dose: 100.0 mg/kg/injection, schedule: Q04DX003 (ip), vehicle: saline.

“And” between values parts separate entries of the source, which are not always exact repeats. Equal entries are not always repeated. Inconclusive results and toxic doses are left out.

Take `O=C(O)C1CCC=CC1c1ccccc1` (stereo not drawn): the T/C by setting is: (dose: 100.0 mg/kg/injection, schedule: Q01DX005 (ip), vehicle: saline with Tween-80) 101 % of control; under setting [1], 96 % of control; (dose: 200.0 mg/kg/injection, schedule: Q01DX005 (ip), vehicle: saline with Tween-80) 101 % of control; under setting [2], 110 % of control; (dose: 400.0 mg/kg/injection, schedule: Q01DX005 (ip), vehicle: saline with Tween-80) 116 % of control; (dose: 400.0 mg/kg/injection, schedule: Q01DX009 (ip), vehicle: saline with Tween-80) 110 % of control.

Regarding `CC(=O)n1ncc2ccc(N)cc21`, the T/C (dose: 25.0 mg/kg/injection, schedule: Q01DX009 (ip), vehicle: water) was 89 % of control; the T/C under setting [3] is 101 % of control; the T/C (dose: 100.0 mg/kg/injection, schedule: Q01DX009 (ip), vehicle: water) is 96 % of control; the T/C under setting [4] is 100 % of control; the T/C under setting [5] was 96 % of control.

As for `O=C1OC(=O)c2c(Br)c(Br)c(Br)c(Br)c21`, the T/C runs as follows: under setting [6], 103 % of control; (dose: 200.0 mg/kg/injection, schedule: Q01DX009 (ip), vehicle: saline) 97 % of control; (dose: 400.0 mg/kg/injection, schedule: Q01DX009 (ip), vehicle: saline) 107 % of control.

Consider `O=C(OCC#CC#CCOC(=O)c1ccccc1)c1ccccc1`, for which the T/C under setting [7] is 102 % of control; the T/C (dose: 100.0 mg/kg/injection, schedule: Q04DX003 (ip), vehicle: Klucel (hydroxypropylcellulose) (HPC)) is 94 % of control; the T/C under setting [8] is 95 % of control; the T/C (dose: 200.0 mg/kg/injection, schedule: Q04DX003 (ip), vehicle: Klucel (hydroxypropylcellulose) (HPC)) is 96 % of control; the T/C under setting [9] is 104 % of control; the T/C (dose: 400.0 mg/kg/injection, schedule: Q04DX003 (ip), vehicle: Klucel (hydroxypropylcellulose) (HPC)) is 89 % of control.

`O=C(Nc1cc(C(F)(F)F)ccc1Cl)c1ccccc1F`: the T/C by setting is: (dose: 100.0 mg/kg/injection, schedule: Q04DX002 (ip), vehicle: saline with Tween-80) 102 % of control; (dose: 200.0 mg/kg/injection, schedule: Q04DX002 (ip), vehicle: saline with Tween-80) 102 % of control; (dose: 400.0 mg/kg/injection, schedule: Q04DX002 (ip), vehicle: saline with Tween-80) 108 % of control.

In the case of `Nc1nc(O)c(NC(=O)Nc2ccccc2)c(=O)[nH]1`, the T/C reads like this: (dose: 100.0 mg/kg/injection, schedule: Q04DX003 (ip), vehicle: gum acacia) 102 % of control; (dose: 200.0 mg/kg/injection, schedule: Q04DX003 (ip), vehicle: gum acacia) 100 % of control; (dose: 400.0 mg/kg/injection, schedule: Q04DX003 (ip), vehicle: gum acacia) 105 % of control.

For the compound `CCOC(=O)c1ccc(NC(=O)Nc2cc(C(F)(F)F)ccc2Cl)cc1`, the T/C by setting is: under setting [7], 100 % of control; under setting [8], 104 % of control; under setting [9], 95 % of control.

For the compound `Cc1ccc(/C=N\N=C\c2ccc(C)cc2)cc1`, the T/C was 96 % of control under setting [1] and 91 % of control under setting [2].

With `O=NN(CCCl)C(=O)NC(Cc1ccccc1)C(=O)O` (stereo not drawn), the T/C is, setting by setting: (dose: 12.0 mg/kg/injection, schedule: Q01DX001 (ip), vehicle: gum acacia) 118 % of control; (dose: 28.0 mg/kg/injection, schedule: Q01DX001 (ip), vehicle: gum acacia) 188 % of control; (dose: 42.0 mg/kg/injection, schedule: Q01DX001 (ip), vehicle: gum acacia) 195 % of control; (dose: 63.0 mg/kg/injection, schedule: Q01DX001 (ip), vehicle: gum acacia) 256 % of control; (dose: 112.0 mg/kg/injection, schedule: Q01DX001 (ip), vehicle: gum acacia) 163 % of control; (dose: 168.0 mg/kg/injection, schedule: Q01DX001 (ip), vehicle: gum acacia) 120 % of control.

Turning to `CC(=O)OCCC(C)Nc1ccnc2cc(Cl)ccc12` (stereo not drawn), the T/C by setting is: (dose: 20.0 mg/kg/injection, schedule: Q04DX003 (ip), vehicle: saline with Tween-80) 92 % of control; (dose: 40.0 mg/kg/injection, schedule: Q04DX003 (ip), vehicle: saline with Tween-80) 87 % of control.

Take `CN(C(=O)/C=C/c1ccc([N+](=O)[O-])cc1)c1ccc(S(=O)(=O)F)cc1`: the T/C reads like this: under setting [7], 91 % of control; under setting [8], 94 % of control; under setting [9], 97 % of control.

Take `CP(=O)(Cc1ccccc1)c1ccccc1` (stereo not drawn): the T/C is 101 % of control (dose: 75.0 mg/kg/injection, schedule: Q01DX001 (ip), vehicle: saline); 103 % of control (dose: 150.0 mg/kg/injection, schedule: Q01DX001 (ip), vehicle: saline); 103 % of control (dose: 300.0 mg/kg/injection, schedule: Q01DX001 (ip), vehicle: saline).

With `NC(=S)N1CCCCC1`, the T/C reads like this: under setting [10], 98 % of control; (dose: 200.0 mg/kg/injection, schedule: Q01DX001 (ip), vehicle: saline) 96 % of control.

For `O=C1OCC/C1=C/OCCCCO/C=C1/CCOC1=O`, the T/C (dose: 100.0 mg/kg/injection, schedule: Q04DX002 (ip), vehicle: Klucel (hydroxypropylcellulose) (HPC)) is 97 % of control; the T/C (dose: 200.0 mg/kg/injection, schedule: Q04DX002 (ip), vehicle: Klucel (hydroxypropylcellulose) (HPC)) was 97 % of control; the T/C (dose: 400.0 mg/kg/injection, schedule: Q04DX002 (ip), vehicle: Klucel (hydroxypropylcellulose) (HPC)) was 94 % of control.

As for `Cc1cc(N)ccc1S(=O)(=O)F`, the T/C is, setting by setting: under setting [11], 103 % of control; under setting [12], 103 % of control; (dose: 400.0 mg/kg/injection, schedule: Q04DX003 (ip), vehicle: saline with Tween-80) 100 % of control.

Take `CC[N+](CC)(CC)CCC[N+](CC)(CC)CC`: the T/C was 98 % of control (dose: 30.0 mg/kg/injection, schedule: Q01DX009 (ip), vehicle: water); 95 % of control and 96 % of control under setting [3]; 98 % of control (dose: 80.0 mg/kg/injection, schedule: Q01DX009 (ip), vehicle: water); 103 % of control under setting [4]; 99 % of control under setting [5].

For `Oc1c(CN2CCCC2)cc(Nc2nccc(/C=C/c3ccc(Cl)cc3)n2)cc1CN1CCCC1`, the T/C was 96 % of control under setting [13]; 96 % of control (dose: 50.0 mg/kg/injection, schedule: Q01DX001 (ip), vehicle: saline); 96 % of control under setting [14]; 93 % of control under setting [10]; 90 % of control under setting [15].

Consider `ClCCN1CCN(CCCN2c3ccccc3CCc3ccccc32)CC1`, for which the T/C is, setting by setting: (dose: 12.5 mg/kg/injection, schedule: Q04DX003 (ip), vehicle: saline) 106 % of control; under setting [13], 94 % of control; under setting [14], 114 % of control; under setting [15], 102 % of control and 110 % of control; (dose: 150.0 mg/kg/injection, schedule: Q04DX003 (ip), vehicle: saline) 93 % of control; (dose: 225.0 mg/kg/injection, schedule: Q04DX003 (ip), vehicle: saline) 103 % of control. In addition, the T/C was 93 % of control and 109 % of control (dose: 335.0 mg/kg/injection, schedule: Q04DX003 (ip), vehicle: saline); 101 % of control (dose: 400.0 mg/kg/injection, schedule: Q04DX003 (ip), vehicle: saline).

As for `Cc1cc(-c2ccccc2O)nc(N)n1`, the T/C is, setting by setting: (dose: 100.0 mg/kg/injection, schedule: Q04DX002 (ip), vehicle: saline) 90 % of control; (dose: 200.0 mg/kg/injection, schedule: Q04DX002 (ip), vehicle: saline) 94 % of control; (dose: 400.0 mg/kg/injection, schedule: Q04DX002 (ip), vehicle: saline) 90 % of control.

On to `O=C(O)c1ccc2c(c1Cl)C(=O)c1ccccc1C2=O`, for which the T/C is, setting by setting: under setting [11], 98 % of control; under setting [12], 93 % of control.

Take `CCCCN1CC1(C)C` (stereo not drawn): the T/C (dose: 25.0 mg/kg/injection, schedule: Q01DX009 (ip), vehicle: saline) was 105 % of control; the T/C (dose: 50.0 mg/kg/injection, schedule: Q01DX009 (ip), vehicle: saline) is 105 % of control; the T/C under setting [10] was 98 % of control; the T/C under setting [6] was 106 % of control.

As to `O=C(O)c1ccc(Br)c([N+](=O)[O-])c1`, the T/C is 95 % of control under setting [7], 94 % of control under setting [8] and 92 % of control under setting [9].
